Test results: the supplement of paper PMC10307832

Columns and labels:
Test in all cases: relative viability (nuclei count vs DMSO), 5 days (fraction); higher = more cells survive
Sulindac + Tozasertib = compound: CC1=C(CC(=O)O)c2cc(F)ccc2/C1=C\c1ccc([S+](C)[O-])cc1 [Sulindac] + Cc1cc(Nc2cc(N3CCN(C)CC3)nc(Sc3ccc(NC(=O)C4CC4)cc3)n2)n[nH]1 [Tozasertib] (partner 0.1 µM)
Procedure, shortened: (§1)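 Relative viability divides the nuclei count in treated wells by that in vehicle wells. Lung cancer cell lines were seeded in 1536-well plates, dosed by pin tool the next day, and fixed and stained after 5 days in one step with final 0.05% Triton X-100, 1% formaldehyde and 1 ug/ml Hoechst. Dosing was a single drug or a fixed anchor-drug dose plus five library-drug doses (not always all listed) in √10 steps, and values are medians of duplicate plates imaged at 4×.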

[1] = compound: O=c1[nH]cc(F)c(=O)[nH]1 [5-Fluorouracil] + CC(C)C[C@H](NC(=O)[C@H](Cc1ccccc1)NC(=O)c1cnccn1)B(O)O [Bortezomib] (partner 0.002 µM)
Procedure, shortened: as §1

[2] = compound: O=c1[nH]cc(F)c(=O)[nH]1 [5-Fluorouracil] + CS(=O)(=O)N1CCN(Cc2cc3nc(-c4cccc5[nH]ncc45)nc(N4CCOCC4)c3s2)CC1 [Pictilisib] (partner 1 µM)
Procedure, shortened: as §1

[3] = compound: O=c1[nH]cc(F)c(=O)[nH]1 [5-Fluorouracil] + O=C(c1cc(Cc2n[nH]c(=O)c3ccccc23)ccc1F)N1CCN(C(=O)C2CC2)CC1 [Olaparib] (partner 8 µM)
Procedure, shortened: as §1

| Cell Line | relative viability (Sulindac + Tozasertib; first compound 0.08 µM) | relative viability (Sulindac + Tozasertib; first compound 0.253 µM) | relative viability (Sulindac + Tozasertib; first compound 2.53 µM) | relative viability (Sulindac + Tozasertib; first compound 8 µM) | relative viability ([1]; first compound 0.02 µM) | relative viability ([1]; first compound 0.2 µM) | relative viability ([1]; first compound 0.6325 µM) | relative viability ([1]; first compound 2 µM) | relative viability ([2]; first compound 0.02 µM) | relative viability ([2]; first compound 0.2 µM) | relative viability ([2]; first compound 0.6325 µM) | relative viability ([2]; first compound 2 µM) | relative viability ([3]; first compound 0.02 µM) | relative viability ([3]; first compound 0.2 µM) | relative viability ([3]; first compound 0.6325 µM) | relative viability ([3]; first compound 2 µM) | relative viability (Sulindac + Tozasertib; first compound 0.8 µM) |
| --- | --- | --- | --- | --- | --- | --- | --- | --- | --- | --- | --- | --- | --- | --- | --- | --- | --- |
| HOP-62 | 0.409 | 0.41 | 0.386 | 0.426 | 0.85 | 0.891 | 0.859 | 0.558 | 0.711 | 0.879 | 0.705 | 0.569 | 0.39 | 0.449 | 0.405 | 0.387 |  |
| HCC-366 | 0.104 | 0.148 | 0.111 | 0.198 | 1.08 | 0.946 | 0.523 | 0.0524 | 0.166 | 0.156 | 0.108 | 0.0793 | 0.387 | 0.397 | 0.199 | 0.0788 | 0.199 |
| NCI-H2405 | 0.733 | 0.795 | 0.793 | 0.751 | 0.943 | 1.02 | 0.96 | 0.681 | 0.566 | 0.536 | 0.303 | 0.463 | 0.808 | 0.962 | 0.891 | 0.618 | 0.684 |
| LXF-289 | 0.176 | 0.167 | 0.176 | 0.205 | 0.99 | 0.712 | 0.312 | 0.282 | 0.787 | 0.689 | 0.421 | 0.295 | 1.05 | 0.778 | 0.439 | 0.334 | 0.195 |
